# Laboratory results as given in patent US11382850B2, “Compositions and methods for inhibiting growth of caries-, gingivitis- and halitosis-causing bacteria” (DoseBiome Inc., priority 2019, dated 2022).
# Key:
# Format in all cases: cell-based
# [1] = system: Porphyromonas gingivalis ATCC 33277; assay: Growth inhibition assay, P. gingivalis (colony counts normalized to pH-matched Schaedler's broth)
# Protocol: Solobacterium moorei DSM 22971 and Porphyromonas gingivalis ATCC 33277 were grown in Schaedler's broth (Himedia) or Brucella blood agar with hemin and vitamin K (Hardy Diagnostics) under anaerobic conditions at 37° C. Anaerobic conditions were maintained using the Anaerogen atmosphere generation system (Oxoid). Streptococcus mutans UA159 were grown in Brain Heart Infusion (BHI; Hardy Diagnostics) under 5% CO2 at 37° C. Various concentrations of xylitol (Acros Organics), erythritol (Acros Organics) and/or polyphenon 60 (Sigma) were dissolved in Schaedler's broth or BHI broth. […] The mixtures were pH adjusted using either hydrochloric acid or sodium hydroxide to a final pH of 6.5±0.1, 7.5±0.1 or 8.5±0.1. All test products were filter-sterilized after pH adjustment. […] After 48 h of incubation, various dilutions of the cells were spotted into Brucella blood agar with hem in and vitamin K, and incubated for 48 h for S. moorei, and for 72 h for P. gingivalis. Cell counts were normalized against growth in Schaedler's broth adjusted to their respective testing pH. […] The percent inhibition was measured by normalizing the results against P. gingivalis grown in media with the corresponding pH adjustment. […] The percent inhibition was measured by normalizing the results against P. gingivalis grown in media with the corresponding pH adjustment.
# [2] = system: Solobacterium moorei DSM 22971; assay: Growth inhibition assay, S. moorei (colony counts normalized to pH-matched Schaedler's broth)
# Protocol: Solobacterium moorei DSM 22971 and Porphyromonas gingivalis ATCC 33277 were grown in Schaedler's broth (Himedia) or Brucella blood agar with hemin and vitamin K (Hardy Diagnostics) under anaerobic conditions at 37° C. Anaerobic conditions were maintained using the Anaerogen atmosphere generation system (Oxoid). Streptococcus mutans UA159 were grown in Brain Heart Infusion (BHI; Hardy Diagnostics) under 5% CO2 at 37° C. Various concentrations of xylitol (Acros Organics), erythritol (Acros Organics) and/or polyphenon 60 (Sigma) were dissolved in Schaedler's broth or BHI broth. […] The mixtures were pH adjusted using either hydrochloric acid or sodium hydroxide to a final pH of 6.5±0.1, 7.5±0.1 or 8.5±0.1. All test products were filter-sterilized after pH adjustment. […] After 48 h of incubation, various dilutions of the cells were spotted into Brucella blood agar with hem in and vitamin K, and incubated for 48 h for S. moorei, and for 72 h for P. gingivalis. Cell counts were normalized against growth in Schaedler's broth adjusted to their respective testing pH. […] The percent inhibition was measured by normalizing the results against S. moorei grown in media with the corresponding pH adjustment. […] The percent survival was measured by normalizing the results against S. moorei grown in media with the corresponding pH adjustment. […] The percent inhibition was measured by normalizing the results against S. moorei grown in media with the corresponding pH adjustment. An upper limit of 0.1 mg/mL polyphenon 60 was used in order to be able to assess the pH effects.
# [3] = system: Streptococcus mutans UA159; assay: Growth inhibition assay, S. mutans (colony counts normalized to pH-matched BHI); settings: 1% (w/v) or 10% (w/v) sugar alcohol alone, pH 6.5, 7.5 or 8.5
# [4] = 10% sugar alcohol alone, pH 6.5
# [5] = 10% sugar alcohol alone, pH 7.5
# [6] = 10% sugar alcohol alone, pH 8.5
SMILES,"Survival of P. gingivalis ([1]; 1% sugar alcohol alone, pH 6.5) [%]","Survival of P. gingivalis ([1]; 1% sugar alcohol alone, pH 7.5) [%]","Survival of P. gingivalis [1, 4] [%]","Survival of P. gingivalis [1, 5] [%]","Survival of P. gingivalis [1, 6] [%]","S. moorei survival [2, 4] [%]","S. moorei survival [2, 5] [%]","S. moorei survival [2, 6] [%]","inhibition of S. moorei growth ([2]; on its own at varying concentrations, any pH)",inhibitory activity on growth of S. mutans [3],"Survival of P. gingivalis ([1]; 1% sugar alcohol alone, pH 8.5) [%]","S. moorei survival ([2]; 1% sugar alcohol alone, pH 6.5) [%]","S. moorei survival ([2]; 1% sugar alcohol alone, pH 7.5) [%]","S. moorei survival ([2]; 1% sugar alcohol alone, pH 8.5) [%]"
OC[C@@H](O)[C@@H](O)CO [erythritol],92.1,75.4,41.1,19.9,13.6,140.4,156.9,162.0,did not inhibit,inhibit growth,,,,
OC[C@@H](O)[C@H](O)[C@@H](O)CO [xylitol],69.8,63.2,14.3,8.9,7.4,52.6,53.6,26.8,,had inhibitory activity,60.0,52.0,53.3,17.3
